Results from US11752115B2, “PPAR-alpha agonist treatment of neuropsychiatric disorders” (THE BOARD OF TRUSTEES OF THE UNIVERSITY OF ILLINOIS, priority 2017, dated 2023).
Read-outs that look alike come from different tables or passages of the source.

Assays:
SI mice [1] = experiment: Elevated plus maze; format: in vivo; settings: for prevention of the anxiolytic effect of PEA, vs. PEA 10 mg/kg (FIG. 3D): PEA 10 mg/kg i.p. 1 h before test; for time spent in the open arms (increase vs vehicle-treated SI mice): […] before test
Procedure: Elevated plus maze. Elevated plus maze tests were performed as previously (28). Mice chose between entering open or closed arms that extend from a central platform. An arm entry was scored when four legs were within the arm. Behavior was recorded for 5 min. The time spent and the number of open arm entries were used as index of anxiety-like behavior.

SI mice [2] = experiment: Locomotor activity (Example 1); format: in vivo; settings: PEA 5, 10, 20 mg/kg i.p., G7 10 mg/kg i.p., G6 3 mg/kg i.p., FIN 50 mg/kg s.c.
Procedure: Locomotor activity. […] Horizontal sensors beam interruptions measured horizontal activity for a total of 10 min.

[3] = tested on: allopregnanolone (Allo) levels; experiment: Brain neurosteroid measurements (GC-MS): Allo; format: in vivo, mice; settings: for Allo content in the olfactory bulb vs. PEA-treated mice (block of PEA effect): PEA 10 mg/kg i.p. 1 h before sacrifice
Procedure: (§1) Brain neurosteroid measurements. Extraction, derivatization and quantification of unconjugated neurosteroids was described previously (32). Steroids were extracted and then purified and separated by high-performance liquid chromatography (HPLC) after addition of deuterium-labeled internal standards (25). The aqueous phase (2 ml) containing sulfated neurosteroids underwent a solvolysis. After derivatization, gas chromatography-mass spectrometry analysis in the standard electron impact mode as previously reported (24, 25).

[4] = tested on: early and late adolescent SI mice; settings: for time after which aggression rebounded (duration of anti-aggressive effect): early and late adolescent SI mice; for EC50 dose, reduction of aggression: i.p., 60 min before test
Procedure: Resident-Intruder Test. To test aggression, a male intruder mouse of the same strain as the resident mouse, was placed in a resident home cage (24 cm×17 cm×12 cm) and resident-intruder interactions were videotaped for 10 min. Aggressive behavior of SI mice was characterized by an initial pattern of exploratory activity around the intruder, followed by rearing and tail rattle, accompanied within a few seconds by wrestling and/or a violent biting attacks. The total number of wrestling and attacks during the 10 min observation period was measured as previously described (Pinna et al., 2003, 2005), 60 min after drug administration. For every drug studied, SI mice were first exposed to three behavioral sessions, and then the average of basal aggression level for every single SI mouse was calculated; 2 days later, aggression levels following treatment were tested. Treated animals showing a reduction of the number of attacks less than 30% vs. the respective basal control values were considered as “low- to non-responders.”
Statistical Analyses. Results are presented as means±SEMs unless otherwise indicated. Student's t-test, one-way ANOVA and two-way ANOVA repeated measures followed by Bonferroni post hoc test were performed to analyze experimental data; significance was set at p<0.05. EC50 values were calculated from dose-response curves analyzed by the “quantal dose-response: probits test” using the computer program of Tallarida and Murray equipped with a statistical package (Tallarida and Murray, 1987). Statistical comparisons among the different EC50s were performed with the “cohort package software.” (available at cohort.com).

[5] = tested on: early and late adolescent SI mice; experiment: Locomotor activity (Example 2); settings: all doses tested, i.p., 60 min before test
[6] = tested on: cannabinoid receptor type 1 (CB1); settings: direct activation of CB1 (Vallée et al., 2014); cited from earlier work
TNF-α = settings: depressed patients, responders [82]; cited from earlier work
[7] = tested on: Allo sulfate (Allo-S) and other sulfated neurosteroids; experiment: Brain sulfated neurosteroid measurements (GC-MS); format: in vivo; settings: SI mice; for Allo-S, hippocampus (increase): 60 minutes before sacrifice
Procedure: as §1

SI mice [8] = experiment: Contextual fear conditioning, extinction and extinction retention; format: in vivo; settings: PPAR-α KO mice; 5 mg/kg i.p.
Procedure: (§2) Contextual fear conditioning. Contextual fear conditioning was performed as previously (25).
(§3) Conditioning trial. Mice were placed in the chamber and exposed for 8 min to a conditioned stimulus and an electric foot-shock (unconditioned stimulus).
(§4) Reactivation. 24 h after conditioning, mice were re-exposed for 5 min to the context for retrieval/reactivation and treated immediately after reactivation.
(§5) Extinction and extinction retention. 24 h after reactivation, mice were re-introduced for 5 min in the chamber once daily for 5 days and freezing time was an index of contextual fear responses. After an interval of 8 days, mice were re-exposed to the chamber to determine extinction retention (25).

[9] = as above; format: in vivo, mice; settings: GH mice; 5 mg/kg i.p.
Procedure: as §2, §3, §4, §5

[10] = tested on: Progesterone (Prog) levels; experiment: Brain neurosteroid measurements (GC-MS): progesterone; format: in vivo; settings: SI mice, 1 h
Procedure: as §1

SI mice [11] = experiment: Forced swim test (FST); format: in vivo
Procedure: (§6) Forced swim test and tail suspension test. The forced swim test (FST) or a tail suspension test (TST) was performed as previously (30, 31). FST sessions were video-recorded for 6 min and the last 4 min were analyzed (30). TST duration was 6 min. Immobility time was an index of depressive-like behavior.

Pregnenolone (PE) = experiment: Brain neurosteroid measurements (GC-MS): pregnenolone; format: in vivo; settings: SI mice, 1 h
Procedure: as §1

SI mice [12] = experiment: Tail suspension test (TST); format: in vivo
Procedure: as §6

[13] = tested on: 5α-dihydroprogesterone (5α-DHP); experiment: Brain neurosteroid measurements (GC-MS): 5α-DHP; format: in vivo; settings: SI mice, 1 h
Procedure: as §1

PPD patients = settings: intravenous infusions, vs only 9% of placebo-treated; cited from earlier work
[14] = PPAR-α KO SI mice, 10 mg/kg i.p., 60 minutes before test
[15] = SI mice, 10 mg/kg i.p., 1 h before test

CCC(=O)NC[C@H](Cc1ccc(OCCc2nc(-c3ccccc3)oc2C)cc1)N/C(C)=C\C(=O)c1ccc(C(F)(F)F)cc1 [G6, GW6471]
prevention of the anxiolytic effect of PEA, vs. PEA 10 mg/kg (FIG. 3D) (SI mice [1]; SI mice, 3 mg/kg i.p. […] before test): −78% | sedation / effect on locomotor activity (SI mice [2]): do not induce sedation | Allo content in the olfactory bulb vs. PEA-treated mice (block of PEA effect) ([3]; SI mice, 3 mg/kg i.p. […] before sacrifice): −48%

CNCC[C@H](Oc1ccc(C(F)(F)F)cc1)c1ccccc1 [S-FLX, S-fluoxetine]
reduction in the number of attacks vs. basal value ([4]; late SI mice, 0.75 mg/kg i.p.): −52% | time after which aggression rebounded (duration of anti-aggressive effect) ([4]; single dose 0.375 mg/kg): 1 days | time after which aggression rebounded (duration of anti-aggressive effect) ([4]; single dose 0.75 mg/kg and […]): 3 days | exploratory / locomotor activity [5]: did not reduce

CC(C)OC(=O)C(C)(C)Oc1ccc(C(=O)c2ccc(Cl)cc2)cc1 [fenofibrate, Fenofibrate]
time spent in the open arms (increase vs vehicle-treated SI mice) (SI mice [1]; SI mice, 7.5 mg/kg s.c.): +88% | time spent in the open arms (increase vs vehicle-treated SI mice) (SI mice [1]; SI mice, 30 mg/kg s.c.): +442% | time spent in the open arms (increase vs vehicle-treated SI mice) (SI mice [1]; SI mice, 120 mg/kg s.c.): +552% | sedation / effect on locomotor activity (SI mice [2]): do not induce sedation

CC(C)(C)NC(=O)[C@H]1CC[C@H]2[C@@H]3CC[C@H]4NC(=O)C=C[C@]4(C)[C@H]3CC[C@]12C [FIN, Finasteride]
prevention of the anxiolytic effect of PEA, vs. PEA 10 mg/kg (FIG. 3D) (SI mice [1]; SI mice, 50 mg/kg s.c. 2.5 h before test): −68% | sedation / effect on locomotor activity (SI mice [2]): do not induce sedation | Allo content in the olfactory bulb vs. PEA-treated mice (block of PEA effect) ([3]; SI mice, 50 mg/kg s.c. 2.5 h before sacrifice): −60%

CCCCCc1cc(O)c2c(c1)OC(C)(C)[C@@H]1CCC(C)=C[C@@H]21 [THC, 19-tetrahydrocannabinol]
increase of the synthesis of pregnenolone [6]: 30 fold

CN(C)CCC[C@@]1(c2ccc(F)cc2)OCc2cc(C#N)ccc21 [escitalopram]
lower expression of TNF-α after successful treatment (TNF-α): 30%

CCCCCCCCCCCCCCCC(=O)NCCO [PEA, N-Palmitoylethanolamine]
reduction of the number of attacks vs. basal value ([4]; early SI mice, 10 mg/kg i.p.): −57% | reduction of the number of attacks vs. basal value ([4]; early SI mice, 15 mg/kg i.p.): −75% | reduction of the number of attacks vs. basal value ([4]; early SI mice, 20 mg/kg i.p.): −86% | EC50 dose, reduction of aggression ([4]; early adolescent SI mice (PND 21)): 8 mg/kg | reduction of the number of attacks vs. basal value ([4]; late SI mice, 10 mg/kg i.p.): −81% | reduction of the number of attacks vs. basal value ([4]; late SI mice, 15 mg/kg i.p.): −84% | reduction of the number of attacks vs. basal value ([4]; late SI mice, 20 mg/kg i.p.): −91% | EC50 dose, reduction of aggression ([4]; late adolescent SI mice (PND 45)): 6.5 mg/kg | duration of anti-aggressive effect ([4]; single dose 10 mg/kg and 15 mg/kg, late SI adolescent mice): less than 3 days | time after which the effect was extinguished ([4]; single dose 20 mg/kg, late SI mice): 5 days | duration of anti-aggressive effect (persisted) ([4]; single dose 20 mg/kg, late adolescent SI mice): 3 days | time after which aggressive behavior was reinstated ([4]; single dose 10, 15, and 20 mg/kg, early SI mice): 3 days | time after which aggressive behavior was reinstated ([4]; single dose 10 and 15 mg/kg, late SI mice): 3 days | Allo-S, hippocampus (increase) ([7]; 10 mg/kg i.p.): +100% | Allo-S, hippocampus (increase) ([7]; 20 mg/kg i.p.): +104% | other sulfated neurosteroid levels (PE sulfate, PA sulfate, DHEA sulfate) ([7]; olfactory bulb and hippocampus, 5, 10 and 20 mg/kg i.p.): did not affect | contextual fear responses in PPAR-α KO mice (SI mice [8]): failed to affect contextual fear responses | contextual fear responses in GH mice [9]: failed to affect contextual fear responses | anxiolytic effect in GH mice (elevated plus maze) (SI mice [1]; GH mice, 5-10 mg/kg i.p.): had no effect | number of entries in the open arms (vs vehicle) (SI mice [1]; [14]): +6% | time spent in the open arms (vs vehicle) (SI mice [1]; [14]): −1% | Progesterone (Prog) levels, striatum (increase) ([10]; 10 mg/kg i.p.): +356% | Progesterone (Prog) levels, amygdala (increase) ([10]; 20 mg/kg i.p.): +223% | Progesterone (Prog) levels, hippocampus (increase) ([10]; 20 mg/kg i.p.): +3128% | Progesterone (Prog) levels, striatum (increase) ([10]; 20 mg/kg i.p.): +594% | sedation / effect on locomotor activity (SI mice [2]): do not induce sedation | time of immobility in the FST in GH-control animals (SI mice [11]; GH-control mice, 10 mg/kg): lack of effect | time of immobility in the FST vs vehicle-treated mice (SI mice [11]; PPAR-α KO mice, 10 mg/kg i.p.): +5% | Pregnenolone (PE), olfactory bulb (increase) (Pregnenolone (PE); 5 mg/kg i.p.): +50% | Pregnenolone (PE), olfactory bulb (increase) (Pregnenolone (PE); 10 mg/kg i.p.): +69% | time of immobility in the TST in GH-control animals (SI mice [12]; GH-control mice, 10 mg/kg): lack of effect | time of immobility in the TST vs vehicle-treated mice (SI mice [12]; PPAR-α KO mice, 10 mg/kg i.p.): +12% | 5α-dihydroprogesterone (5α-DHP), hippocampus (increase) ([13]; 10 mg/kg i.p.): +64% | 5α-dihydroprogesterone (5α-DHP), hippocampus (increase) ([13]; 20 mg/kg i.p.): +87% | Allo concentrations, olfactory bulb of GH mice ([3]; GH mice, 20 mg/kg i.p., 60 minutes before sacrifice): does not modify | Allo levels, olfactory bulb of PPAR-α KO mice ([3]; SI PPAR-α KO mice, 10 mg/kg i.p., 1 h before sacrifice): failed to affect | Allo levels in the serum (peripheral levels) ([3]; SI mice, 10 mg/kg i.p., 1 h before sacrifice): failed to change | Allo levels, striatum ([3]; SI mice, 5, 10 and 20 mg/kg i.p., 1 h): failed to change

CC(=O)[C@H]1CC[C@H]2[C@@H]3CC[C@H]4C[C@H](O)CC[C@]4(C)[C@H]3CC[C@]12C [allopregnanolone]
patients with rapid and long lasting remission of depressive symptoms (PPD patients): 70%

CC(C)(Sc1ccc(CCN(CCCCC2CCCCC2)C(=O)NC2CCCCC2)cc1)C(=O)O [G7, GW7647]
number of entries in the open arms (change vs vehicle-treated SI mice) (SI mice [1]; [15]): +247% | time spent in the open arms (change vs vehicle-treated SI mice) (SI mice [1]; [15]): +506% | sedation / effect on locomotor activity (SI mice [2]): do not induce sedation | Allo levels, olfactory bulb (increase vs vehicle-treated SI mice) ([3]; SI mice, 10 mg/kg i.p., 1 h): +89%
